Experimental findings from PMC11071649, “Synthesis and Selective Anticancer Activity Evaluation of 2-phenylacrylonitrile Derivatives as Tubulin Inhibitors” (Current Medicinal Chemistry, 2024) are described below.

What all share (assay type): cell-based, human
For one assay, the system named is A549 lung cancer cell. Briefly: MTT anti-proliferative assay, A549. The note with it: for IC50: MTT, 48 h. A digest of the protocol: (§1)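 MTT read-out of net cell-growth inhibition after compound exposure of cells seeded in 96-well plates. Lines were ATCC-sourced and grown in DMEM plus FBS.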
The test system of a further assay is AGS gastric cancer cell. Briefly: MTT anti-proliferative assay, AGS. The settings on record: for IC50: MTT, 48 h. A digest of the protocol:
as §1
A general note: Formazan colour is commonly taken as a measure of viable cells.

In assay [1] the test system is BEL-7402 liver cancer cell. In words: MTT anti-proliferative assay, BEL-7402. The note with it: for IC50: MTT, 48 h. A digest of the protocol:
as §1

Assay [2] deals with HCT116 colectal cancer cell. Briefly: MTT anti-proliferative assay, HCT116. The note with it: for IC50: MTT, 48 h, read-out: IC50 HCT-116. In a few lines: as §1
The test system of assay [3] is HeLa cervical cancer cell. In words: MTT anti-proliferative assay, HeLa. The settings on record: MTT, 48 h. A digest of the protocol:
as §1

The subject of another assay is HepG2 hepatoma cell. Briefly: MTT anti-proliferative assay, HepG2. The settings on record: for IC50: MTT, 48 h, read-out: IC50 HepG-2. A digest of the protocol: as §1
A further assay relates to L-02 normal liver cell. Briefly: MTT assay, L-02 normal cells. The note with it: 48 h. A digest of the protocol: as §1
The test system of assay [4] is MGC-803 late stage differentiation gastric cancer cell. In words: MTT anti-proliferative assay, MGC-803. The note with it: for IC50: MTT, 48 h. A digest of the protocol:
as §1

The test system of another assay is MCF-7 breast cancer cell. In words: MTT anti-proliferative assay, MCF-7. The settings on record: for IC50: MTT, 48 h. In a few lines: as §1
Assay [5] has as its system MCF-10A normal breast cell. In words: MTT assay, MCF-10A normal cells. The settings on record: 48 h. In a few lines: as §1
Assay [6] concerns Raji B lymphoblastoid cell. In words: MTT anti-proliferative assay, Raji. The settings on record: for IC50: MTT, 48 h, read-out: IC50 Raji. In a few lines: as §1
Assay [7] concerns SGC-7901 early differentiation gastric cancer cell. In words: MTT anti-proliferative assay, SGC-7901. The note with it: for IC50: MTT, 48 h. A digest of the protocol: as §1
In assay [8] the test system is diffuse large B-cell lymphoma SU-DHL-10 cell. In words: MTT anti-proliferative assay, SU-DHL-10. The settings on record: for IC50: MTT, 48 h, read-out: IC50 SU-DHL-10. In a few lines: as §1

Each structure is given as a SMILES string.

`N#C/C(=C\c1ccc(Br)cc1)c1ccccc1OC(F)(F)F` [Compound 1c2c]: the IC50 with A549 lung cancer cell was above 100 µM; in the assay on AGS gastric cancer cell it was 16.7 ± 2.3 µM; in assay [1], above 100 µM; in assay [2], 17.2 ± 5.2 µM; in assay [3], above 100 µM; with HepG2 hepatoma cell it was 27.9 ± 2.4 µM. Also, the IC50 in the assay with L-02 normal liver cell is 42.2 ± 11.5 µM; in assay [4], 19.6 ± 6.7 µM; in the assay with MCF-7 breast cancer cell, above 100 µM; in assay [5], above 100 µM; in [6] it was 42.4 ± 1.7 µM; in [7], above 100 µM. In addition, the IC50 in assay [8] is above 100 µM. For the same molecule, the “SI (selectivity index), IC50 (L-02)/IC50 (AGS)” value (from here on “SI (selectivity index) … (AGS)”) with AGS gastric cancer cell is listed as above 2.5. Further, the “SI (selectivity index), IC50 (L-02)/IC50 (HCT-116)” value (“SI (selectivity index) … (HCT-116)” below) in [2] is above 2.4. Moreover, the “SI (selectivity index), IC50 (L-02)/IC50 (HepG-2)” value (“SI (selectivity index) … (HepG-2)” for short) in the assay on HepG2 hepatoma cell is above 1.5. Further, the “SI (selectivity index), IC50 (L-02)/IC50 (MGC-803)” value (from here on “SI (selectivity index) … (MGC-803)”) in [4] is above 2.1.

Regarding `Cc1ccc(/C=C(\C#N)c2ccccc2OC(F)(F)F)cc1` [Compound 1c2d], in the assay on A549 lung cancer cell, the “SI (selectivity index), IC50 (L-02)/IC50 (A549)” value is given as above 1.9. For the same molecule, the IC50 is 50.7 ± 7.4 µM with A549 lung cancer cell; 6.3 ± 0.4 µM with AGS gastric cancer cell; 17.4 ± 4.2 µM in assay [1]; above 100 µM in assay [2]; above 100 µM in [3]; 26.7 ± 10.1 µM with HepG2 hepatoma cell. In addition, the half-inhibitory concentration (IC50) in the assay on L-02 normal liver cell is above 100 µM; in assay [4] it was 13.1 ± 3.6 µM; with MCF-7 breast cancer cell, above 100 µM; in assay [5], above 100 µM; in [6] it was 60.5 ± 19.1 µM; in assay [7] it was 50.1 ± 5.9 µM. The IC50 in assay [8] was above 100 µM. The “SI (selectivity index) … (AGS)” value in the assay on AGS gastric cancer cell is recorded as above 15.6. In addition, the “SI (selectivity index), IC50 (L-02)/IC50 (BEL-7402)” value (shortened to “SI (selectivity index) … (BEL-7402)”) in assay [1] was above 5.7. Besides, the “SI (selectivity index) … (HepG-2)” value in the assay on HepG2 hepatoma cell was above 3.7. Further, the “SI (selectivity index) … (MGC-803)” value in assay [4] is listed as above 7.6. Moreover, in assay [6], the “SI (selectivity index), IC50 (L-02)/IC50 (Raji)” value (“SI (selectivity index) … (Raji)” below) is listed as above 1.6. Moreover, in [7], the “SI (selectivity index), IC50 (L-02)/IC50 (SGC-7901)” value (“SI (selectivity index) … (SGC-7901)” below) is recorded as above 1.9.

On to `COc1ccc(/C=C(\C#N)c2ccccc2OC(F)(F)F)cc1` [Compound 1c2e], for which the IC50 in the assay with A549 lung cancer cell is above 100 µM; in the assay on AGS gastric cancer cell, 7.6 ± 0.6 µM; in assay [1], 10.8 ± 2.3 µM; in [2], 8.4 ± 2.4 µM; in [3], 75.8 ± 12.4 µM; with HepG2 hepatoma cell it was 24.9 ± 7 µM. Further, the IC50 in the assay on L-02 normal liver cell is 36.1 ± 4.8 µM; in assay [4], 2.5 ± 1.1 µM; in the assay with MCF-7 breast cancer cell it was above 100 µM; in [5], above 100 µM; in assay [6], 41.3 ± 5.5 µM; in assay [7], 7.8 ± 0.8 µM. Further, the IC50 in assay [8] was above 100 µM. In the assay on AGS gastric cancer cell, the “SI (selectivity index) … (AGS)” value is above 4.7. Also, the “SI (selectivity index) … (BEL-7402)” value in assay [1] is given as above 3.3. In addition, in [2], the “SI (selectivity index) … (HCT-116)” value is on record as above 4.2. Also, the “SI (selectivity index) … (HepG-2)” value in the assay with HepG2 hepatoma cell is listed as above 1.4. Besides, the “SI (selectivity index) … (MGC-803)” value in assay [4] is recorded as above 14.2. Besides, the “SI (selectivity index) … (SGC-7901)” value in assay [7] is given as above 4.5.

Consider `Cc1ccc(/C(C#N)=C/c2ccc(N(C)C)cc2)cc1` [Compound 1d2a], for which the IC50 was above 100 µM in the assay with A549 lung cancer cell; 23 ± 1 µM in the assay on AGS gastric cancer cell; above 100 µM in [1]; above 100 µM in [2]; above 100 µM in assay [3]; above 100 µM in the assay on HepG2 hepatoma cell. The IC50 is above 100 µM with L-02 normal liver cell; 18.8 ± 1.7 µM in assay [4]; above 100 µM with MCF-7 breast cancer cell; above 100 µM in [5]; 7.9 ± 0.5 µM in assay [6]; above 100 µM in [7]. The IC50 in assay [8] turned out to be 19.9 ± 0.7 µM. The “SI (selectivity index) … (AGS)” value in the assay with AGS gastric cancer cell is listed as above 4.3. Besides, in assay [4], the “SI (selectivity index) … (MGC-803)” value was above 5.3. Also, in assay [6], the “SI (selectivity index) … (Raji)” value is recorded as above 12.5. Also, the “SI (selectivity index), IC50 (L-02)/IC50 (SU-DHL-10)” value (from here on “SI (selectivity index) … (SU-DHL-10)”) in [8] is given as above 5.0.

On to `CCN(CC)c1ccc(/C=C(\C#N)c2ccc(C)cc2)cc1` [Compound 1d2b], for which the IC50 was above 100 µM with A549 lung cancer cell; 24.1 ± 0.2 µM in the assay on AGS gastric cancer cell; 65.4 ± 2.5 µM in assay [1]; 3.1 ± 0.5 µM in [2]; above 100 µM in [3]; above 100 µM in the assay on HepG2 hepatoma cell. The concentration for half-maximal inhibition (IC50) in the assay with L-02 normal liver cell was above 100 µM; in [4], 8.6 ± 0.04 µM; in the assay with MCF-7 breast cancer cell it was 52.3 ± 2.2 µM; in [5], above 100 µM; in assay [6] it was 11.8 ± 0.4 µM; in assay [7] it was above 100 µM. Further, in assay [8], the IC50 worked out at 42.6 ± 11.4 µM. In the assay with AGS gastric cancer cell, the “SI (selectivity index) … (AGS)” value is on record as above 4.1. Moreover, in assay [1], the “SI (selectivity index) … (BEL-7402)” value is listed as above 1.5. The “SI (selectivity index) … (HCT-116)” value in assay [2] was above 32.0. Moreover, the “SI (selectivity index) … (MGC-803)” value in assay [4] is given as above 11.5. Further, the “SI (selectivity index), IC50 (MCF-10A)/IC50 (MCF-7)” value with MCF-7 breast cancer cell is listed as above 1.9. Besides, in assay [6], the “SI (selectivity index) … (Raji)” value was above 8.4. In [8], the “SI (selectivity index) … (SU-DHL-10)” value is listed as above 2.3.

In the case of `COc1ccc(/C(C#N)=C/c2cc(OC)c(OC)c(OC)c2)cc1` [Compound 1e2a], the IC50 was above 100 µM in the assay with A549 lung cancer cell; 18.4 ± 1.9 µM with AGS gastric cancer cell; 46.8 ± 5.1 µM in assay [1]; 7.2 ± 0.6 µM in assay [2]; above 100 µM in assay [3]; above 100 µM in the assay with HepG2 hepatoma cell. Also, the IC50 came to 47.5 ± 12.4 µM in the assay on L-02 normal liver cell; 8.3 ± 1.2 µM in assay [4]; 36.9 ± 3.6 µM in the assay with MCF-7 breast cancer cell; 28.1 ± 3.6 µM in [5]; 11.6 ± 4.9 µM in [6]; 38.2 ± 9 µM in [7]. In addition, the half-inhibitory concentration (IC50) in assay [8] came out at 27.2 ± 5.3 µM. Also, in the assay on AGS gastric cancer cell, the “SI (selectivity index) … (AGS)” value is recorded as above 2.8. The “SI (selectivity index) … (BEL-7402)” value in assay [1] was above 1.0. Besides, the “SI (selectivity index) … (HCT-116)” value in [2] is recorded as above 6.5. In assay [4], the “SI (selectivity index) … (MGC-803)” value was above 5.7. In addition, in assay [6], the “SI (selectivity index) … (Raji)” value is listed as above 4.0. Also, the “SI (selectivity index) … (SGC-7901)” value in assay [7] is listed as above 1.2. Moreover, in [8], the “SI (selectivity index) … (SU-DHL-10)” value is given as above 1.7.

Take `COc1ccc(/C(C#N)=C/c2ccc(N(C)C)cc2)cc1` [Compound 1e2b]: the IC50 (in the assay with A549 lung cancer cell; in the assay on AGS gastric cancer cell; in assay [1]; in [2]; in assay [3]; in the assay with HepG2 hepatoma cell) was above 100 µM each time. Moreover, the IC50 with L-02 normal liver cell was above 100 µM; in assay [4] it was 15.1 ± 1.2 µM; in the assay with MCF-7 breast cancer cell, above 100 µM; in assay [5], above 100 µM; in assay [6] it was 12.7 ± 3.8 µM; in assay [7], 22.6 µM. The IC50 in [8] was above 100 µM. The “SI (selectivity index) … (MGC-803)” value in [4] is recorded as above 6.6. In [6], the “SI (selectivity index) … (Raji)” value is listed as above 7.8. Further, the “SI (selectivity index) … (SGC-7901)” value in assay [7] is above 4.4.

In the case of `CCN(CC)c1ccc(/C=C(\C#N)c2ccc(OC)cc2)cc1` [Compound 1e2c], the IC50 (in the assay on A549 lung cancer cell; with AGS gastric cancer cell; in assay [1]; in assay [2]; in [3]; with HepG2 hepatoma cell) was above 100 µM throughout. Moreover, the IC50 in the assay with L-02 normal liver cell is above 100 µM; in [4] it was above 100 µM; with MCF-7 breast cancer cell it was above 100 µM; in [5] it was above 100 µM; in assay [6], 19.3 ± 0.5 µM; in [7], above 100 µM. Further, in assay [8], the 50% inhibitory concentration (IC50) came out at 62.3 ± 9.6 µM. Moreover, in assay [6], the “SI (selectivity index) … (Raji)” value is above 5.1. The “SI (selectivity index) … (SU-DHL-10)” value in [8] is above 1.6.

One may read the IC50 as the concentration that inhibits the measured activity by half.
